Source: patent US20120172351A1, “NOVEL FUSED CYCLIC COMPOUND AND USE THEREOF” (priority 2009, published 2012)
Marks after values point to notes of the source that are not given here.

Key:
human derived GPR40 = target: T1, human derived GPR40 (Homo sapiens, UniProt O14842); assay: Agonist action on human derived GPR40: change of intracellular calcium concentration in CHO cells (FLIPRtetra); format: cell-based; conditions: agonist activity of compound at 1 μM, relative to 10 μM γ linolenic acid as 100%, wave peak height; CHO cells stably expressing human GPR40
T1 construct: expressed in transfected cells
T1 sequence (O14842 whole entry): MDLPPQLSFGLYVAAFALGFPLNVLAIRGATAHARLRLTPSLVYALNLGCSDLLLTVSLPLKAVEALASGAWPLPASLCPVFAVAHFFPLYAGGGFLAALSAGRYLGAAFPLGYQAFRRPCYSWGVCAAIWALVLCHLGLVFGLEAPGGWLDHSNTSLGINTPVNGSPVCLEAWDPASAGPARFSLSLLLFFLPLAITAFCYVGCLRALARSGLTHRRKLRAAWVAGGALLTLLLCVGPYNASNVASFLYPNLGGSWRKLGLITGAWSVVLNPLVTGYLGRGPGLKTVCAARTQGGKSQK
Description: The CHO cell lines that stably expressed human derived GPR40 were used for the determination of the agonist activity. Unless particularly specified, the CHO cell lines were cultured in an α-MEM medium (Wako Pure Chemical Industries, Ltd.) containing 10% dialyzed fetal bovine serum (TRA Thermo Electron).
The cells cultured almost to confluent on the day before assay were rinsed with PBS (Invitrogen), detached with 0.5 mM EDTA (Wako Pure Chemical Industries, Ltd.), and recovered by centrifugation. The obtained cells were counted, diluted to 2×10^5 cells per 1 mL medium, dispensed by 40 μL per well to a 384 well black clear bottomplate (PE Biosystems), and cultured overnight in a CO2 incubator. Various test compounds were added to CHO cells prepared as mentioned above, and change of intracellular calcium concentration was measured using FLIPRtetra (Molecular Device). For the measurement by this device, a Calcium 4 assay kit (Molecular Devices: R8142) was used.
First, fatty acid free BSA at the final concentration of 0.1% was added to the buffer attached to the kit to prepare an assay buffer. Using the assay buffer, a loading solution with Fluo4 was prepared such that the final concentration of fatty acid free BSA was 0.1% and the final concentration of probenecid was 625 μM. On the other hand, a test compound was diluted with the assay buffer to a given concentration, and dispensed to the polypropylene 384-well plate (sample plate). The medium was removed from the cell culture plate, and the loading solution with Fluo4 was dispensed by 25 μL. After culture in a CO2 incubator at 37° C. for 40 min, a sample plate and a cell plate were simultaneously set on the FLIPRtetra, various test compounds were added by 25 μL according to the program of the device, and change of intracellular calcium concentration was measured. The agonist activity of each compound at 1 μM was calculated as a relative activity value to the activity of 10 μM γ linolenic acid as 100% from the wave peak height.

N-STZ-1.5 rat = assay: Oral glucose tolerance test in N-STZ-1.5 rat (type 2 diabetes model); format: in vivo; conditions: male N-STZ-1.5 rats, 1 mg/kg oral, glucose 1.5 g/kg 1 hr after dosing; for Blood glucose lowering rate: glucose AUC 0-120 min vs control group; for Insulin increasing rate: insulin AUC 0-120 min vs control group
Description: The blood glucose increase suppressive action and insulin secretagogue action of the compound of the present invention were evaluated by an oral glucose tolerance test using N-STZ-1.5 rat (TAKEDA RABICS).
Streptozotocin (120 mg/kg) was subcutaneously administered to male Wistar Kyoto rats (1-2 days old) to prepare N-STZ-1.5 rat which is a type 2 diabetes model. The rats were bred under free access to a feed (CE-2, sold by CLEA Japan, Inc.).
Male N-STZ-1.5 rats (21-week-old) were fasted for 19-21 hr, and the body weight was measured. Heparin (Ajinomoto Co., Inc.) was added as an anticoagulant, and aprotinin (SIGMA) was added as a protease inhibitor, and the blood was collected from the tail vein. 0.5% Methylcellulose (control group) or a 0.5% methylcellulose suspension of a test compound (1 mg/kg body weight) was orally administered to the rats of each group (6 per group) at 5 ml/kg and, 1 hr after the administration, a glucose solution (Otsuka Pharmaceutical Factory, Inc.) was orally administered at 1.5 g/5 ml/kg. The blood was collected from the tail vein immediately before glucose loading (0 min value) and 10, 30, 60, 120 min thereafter. The blood was centrifuged and the plasma was separated. The plasma glucose and insulin concentration of the obtained plasma were measured. The plasma glucose was measured by automatic analyzer 7080 (HITACHI), and the insulin concentration was measured by RAT INSULIN RIA KIT (LINCO Research). The glucose AUC and insulin AUC were calculated from the obtained values by the following formulas. Moreover, blood glucose lowering rate and insulin increasing rate were calculated from the obtained AUC by the following formulas. Statistical significance versus control was analyzed by Student's t-test or Aspin-Welch test.
{(0 min plasma glucose)+(10 min plasma glucose)}×10/2+{(10 min plasma glucose)+(30 min plasma glucose)}×20/2+{(30 min plasma glucose)+(60 min plasma glucose)}×30/2+{(60 min plasma glucose)+(120 min plasma glucose)}×60/2
{(0 min plasma insulin)+(10 min plasma insulin)}×10/2+{(10 min plasma insulin)+(30 min plasma insulin)}×20/2+{(30 min plasma insulin)+(60 min plasma insulin)}×30/2+{(60 min plasma insulin)+(120 min plasma insulin)}×60/2
blood glucose lowering rate: [(test compound administration group glucose AUC/control group glucose AUC)−1]×100
insulin increasing rate: [(test compound administration group insulin AUC/control group […] AUC)-1]×100

Wistar fatty rat = assay: Oral glucose tolerance test in Wistar fatty rat; format: in vivo; conditions: female Wistar fatty rats, 1 mg/kg oral, glucose 1 g/kg 1 hr after dosing; glucose AUC 0-120 min vs control group
Description: The blood glucose increase suppressive action of the compound of the present invention was evaluated by an oral glucose tolerance test using Wistar fatty rat (TAKEDA RABICS).
The animal used was female Wistar fatty rat (prepared by TAKEDA RABICS, 18- to 22-week-old). The rats were bred under free access to a feed (CE-2, sold by CLEA Japan, Inc.).
Female Wistar fatty rats (18- to 22-week-old) were fasted for 19-21 hr, and the body weight was measured. Heparin (Ajinomoto Co., Inc.) was added as an anticoagulant, and aprotinin (SIGMA) was added as a protease inhibitor, and the blood was collected from the tail vein. 0.5% Methylcellulose (control group) or a 0.5% methylcellulose suspension of a test compound (1 mg/kg body weight) was orally administered to the rats of each group (6 per group) at 5 ml/kg and, 1 hr after the administration, a glucose solution (Otsuka Pharmaceutical Factory, Inc.) was orally administered at 1 g/5 ml/kg. […] The plasma glucose of the obtained plasma were measured by automatic analyzer 7080 (HITACHI). The glucose AUC was calculated from the obtained values by the formulas described in Experimental Example 2. Moreover, blood glucose lowering rate was calculated from the obtained AUC by the formulas described in Experimental Example 2. Statistical significance versus control was analyzed by Student's t-test.

Row | activity (%) (human derived GPR40) | melting point [°C] | Compound | Blood glucose lowering rate (N-STZ-1.5 rat) | Insulin increasing rate (N-STZ-1.5 rat) | Blood glucose lowering rate (Wistar fatty rat) [%**]
1 | 124 | 169 | Cc1cc(OCCCS(C)(=O)=O)cc(C)c1-c1cccc2c1OC[C@H]2Nc1ccc2c(c1)OC[C@H]2CC(=O)O [Example 7, [(3S)-6-{[(3S)-7-{2,6-dimethyl-4-[3-(methylsulfonyl)propoxy]phenyl}-2,3-dihydro-1-benzofuran-3-yl]amino}-2,3-dihydro-1-benzofuran-3-yl]acetic acid] | −20.5%** | +39.5%^$ | 
2 |  |  | Cc1nc(N2CCOCC2)nc(C)c1-c1cccc2c1OC[C@H]2Nc1ccc2c(c1)OC[C@H]2CC(=O)O.O [Example 77-1, Hydrate of [(3S)-6-({(3S)-7-[4,6-dimethyl-2-(morpholin-4-yl)pyrimidin-5-yl]-2,3-dihydro-1-benzofuran-3-yl}amino)-2,3-dihydro-1-benzofuran-3-yl]acetic acid] | −13.6%^$ | +40.2%^$ | 
3 | 128 | 176 | Cc1cc(OC2CCS(=O)(=O)CC2)cc(C)c1-c1cccc2c1OC[C@H]2Nc1ccc2c(c1)OC[C@H]2CC(=O)O [Example 9, [(3S)-6-{[(3S)-7-{4-[(1,1-dioxidotetrahydro-2H-thiopyran-4-yl)oxy]-2,6-dimethylphenyl}-2,3-dihydro-1-benzofuran-3-yl]amino}-2,3-dihydro-1-benzofuran-3-yl]acetic acid] |  |  | −15.8

Row | Compound | activity (%) (human derived GPR40) | melting point [°C] | Blood glucose lowering rate (N-STZ-1.5 rat) | Insulin increasing rate (N-STZ-1.5 rat) | Blood glucose lowering rate (Wistar fatty rat) [%**]
4 | CCOc1nc2ccc(F)c(F)c2n1-c1cccc2c1OC[C@H]2Nc1ccc2c(c1)OC[C@H]2CC(=O)[O-].[Na+] [Example 33, sodium [(3S)-6-{[(3S)-7-(2-ethoxy-6,7-difluoro-1H-benzimidazol-1-yl)-2,3-dihydro-1-benzofuran-3-yl]amino}-2,3-dihydro-1-benzofuran-3-yl]acetate] | 109 |  |  |  | −19.5
